The values that follow come from article PMC6382835, “A critical evaluation of TRPA1-mediated locomotor behavior in zebrafish as a screening tool for novel anti-nociceptive drug discovery” (Scientific Reports, 2019).

The target of one test is T1, mouse TRPA1 (mTRPA1) (Mus musculus, UniProt Q8BLA8).
T1 construct: host or cells: HEK293 (ATCC CRL-1573), transient transfection
In words: FLIPR calcium signaling assay in mTRPA1-transfected HEK293 cells. In kind it is cell-based. The following applies: Schild plot against ASP7663-induced calcium influx, mTRPA1. On the procedure: HEK293 cells (#CRL-1573, ATCC, VA, USA) were cultured in DMEM media (#11995-065, Sigma-Aldrich, MO, USA) with 10% Fetal Bovine Serum (#F0926-500ML, Thermo Fisher, MA, USA). The cells were maintained in a 37 °C incubator with consistent 5% CO2. They were seeded in a clear 6 well flat bottom cell culture plates (#07-200-83, Corning ®, Thermo Fisher) with 500,000 cells/2 ml/well for transfection, in serum-free Opti-MEM (#31985070, Gibco®, Thermo Fisher). These cells were transfected with pcDNA3.1-mTRPA1 (#MR227099, OriGene, MD, USA), pcDNA3.1-zTRPA1a, or pcDNA3.1-zTRPA1b (a gift from Dr. David Prober) using X-tremeGENE^TM 9 (#6365809001, Sigma-Aldrich). After 24 hours, the transfected cells were dislodged with trypsin, resuspended in Opti-MEM, and seeded 25,000 cells/25 µl/well in 384-well black polystyrene microplates (#82051-296, VWR, PA, USA) for testing calcium signaling the following day. Experiments were carried out with the approval of the Institutional Biohazard Committee (#13-013-16).
Twenty-five µl calcium sensitive Fluorescent Imaging Plate Reader (FLIPR) Calcium 6 assay dye (#R8190, Molecular Devices, CA, USA) was added to each well of a 384-well plate containing HEK293 cells transiently expressing mTRPA1, zTRPA1a, and zTRPA1b, respectively. The cells were incubated for an hour prior to the recording of intracellular calcium levels in a FlexStation3 Multi-Mode Microplate Reader (#R8190, Molecular Devices) as previously described. All compounds were diluted in calcium buffer made with 1x HBSS (#14025-092, Thermo Fisher), 20 mM HEPES (#15630-080, Thermo Fisher), and 2.5 mM Probenecid (#P8761, Sigma-Aldrich). For agonist studies, ASP7663 (#5178, Tocris, Bristol, UK) was diluted in 1% DMSO-containing calcium buffer at desired concentrations and was added during the recording. The TRPA1 antagonists HC-030031 (#2896, Tocris), TCS-5861528 (#3938, Tocris), and A-967079 (#4716, Tocris) were diluted in calcium buffer, and 5 µl of 10x solutions were added 10 minutes prior to the recording. The same amount of DMSO (1%) was added to all control groups to maintain similar DMSO levels with the experimental groups. During the assay, the cells were challenged by a 5x ASP7663 solution or 1% DMSO solution at the 20 seconds time point, and both solutions were diluted in calcium buffer. Relative fluorescence units (RFU) were measured for 120 seconds period by the Flexstation. Area under the curve (AUC) was further evaluated from individual calcium influx data (Supplemental Figs 2 and 4) to plot does-response curve of antagonists. For each specific antagonist concentration we plotted Log(dose ratio-1) against the antagonist concentration in a Schild plot. The dose ratio (A’/A) equals the EC50 of the agonist ([…]) in the presence of a concentration of the antagonist (A’) divided by the EC50 of the agonist in the absence of antagonist (A). The x-intercept of the Schild plot was used to identify the antagonist-receptor affinity (pA2).
All data are presented as means ± standard error of the mean (SEM). For our in vitro statistical analysis, AUC of calcium influx (RFU) was measured to plot dose-response curves, which were further analyzed by nonlinear regression analysis. Mean RFU of the first 10 seconds was used as a baseline of the AUC. EC50 values of the dose-response curves were further used to plot Schild curves, and the curves were analyzed with linear regression analysis. For the mice von Frey test, mechanical thresholds were analyzed with two-way ANOVA followed by a Bonferonni test for multiple comparison analysis. For the zebrafish behavior test, the data from the first five seconds following drug administration were excluded, as zebrafish displacement during that period was highly influenced by liquid dispensing. AUC of all curves were measured and analyzed by one-way ANOVA. The post-hoc analysis was conducted with the Tukey’s or Dunnett’s multiple comparisons unless it stated otherwise. […]

A further test relates to rat TRPA1. Further details: method as in PMID 21402443. To be noted: cited from earlier work.

T1 sequence (Q8BLA8 whole entry): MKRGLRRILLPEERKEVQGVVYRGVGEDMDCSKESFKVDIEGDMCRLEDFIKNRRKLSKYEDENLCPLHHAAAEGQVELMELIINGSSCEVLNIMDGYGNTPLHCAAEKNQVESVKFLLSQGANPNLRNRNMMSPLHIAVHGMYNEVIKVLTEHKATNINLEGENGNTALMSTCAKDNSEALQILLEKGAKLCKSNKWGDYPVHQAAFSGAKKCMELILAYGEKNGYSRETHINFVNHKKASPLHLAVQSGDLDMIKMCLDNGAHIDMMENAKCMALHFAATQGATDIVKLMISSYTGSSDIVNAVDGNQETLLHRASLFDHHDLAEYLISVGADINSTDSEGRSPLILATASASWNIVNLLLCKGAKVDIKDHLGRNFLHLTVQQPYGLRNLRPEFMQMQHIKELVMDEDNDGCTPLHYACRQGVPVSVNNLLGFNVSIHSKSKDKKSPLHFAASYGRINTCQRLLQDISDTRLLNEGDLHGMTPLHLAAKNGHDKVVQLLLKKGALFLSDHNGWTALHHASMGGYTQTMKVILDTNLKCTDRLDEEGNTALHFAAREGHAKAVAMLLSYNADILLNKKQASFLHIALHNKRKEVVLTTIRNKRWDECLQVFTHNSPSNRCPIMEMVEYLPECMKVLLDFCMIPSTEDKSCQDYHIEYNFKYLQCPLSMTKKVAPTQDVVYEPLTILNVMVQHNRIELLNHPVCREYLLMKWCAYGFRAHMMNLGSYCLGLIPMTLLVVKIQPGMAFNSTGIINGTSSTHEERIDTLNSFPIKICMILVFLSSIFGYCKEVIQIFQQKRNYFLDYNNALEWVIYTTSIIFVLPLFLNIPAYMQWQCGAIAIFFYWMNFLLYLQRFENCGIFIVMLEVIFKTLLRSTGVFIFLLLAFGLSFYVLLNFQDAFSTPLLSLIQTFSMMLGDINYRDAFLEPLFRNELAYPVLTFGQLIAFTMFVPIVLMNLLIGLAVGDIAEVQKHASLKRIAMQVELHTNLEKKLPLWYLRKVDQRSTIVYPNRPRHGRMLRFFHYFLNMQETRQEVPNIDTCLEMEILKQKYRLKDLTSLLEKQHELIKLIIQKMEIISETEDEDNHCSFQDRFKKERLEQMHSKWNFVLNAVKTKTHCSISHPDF

Take `CCC(=N\O)/C(C)=C/c1ccc(F)cc1` [A-967076]: at mouse TRPA1 (mTRPA1), the pA2 – broadly, the negative logarithm of the molar antagonist concentration that doubles the agonist concentration needed for the same response – turned out to be 7.0 ± 0.3 and the “pA2 expressed in µM” value is 0.09 µM. In the test with rat TRPA1, the IC50 (commonly the concentration that inhibits the measured activity by half) was 289 nM and the “fold stronger than HC-030031” value was “about 25 fold”.

As to `CCC(C)c1ccc(NC(=O)Cn2cnc3c2c(=O)n(C)c(=O)n3C)cc1` (stereo not drawn) [TCS-5861528], on mouse TRPA1 (mTRPA1), the pA2 is listed as 5.34 ± 0.2 and the “pA2 expressed in µM” value is reported as 4.6 µM.
